Assay results taken from US12227520B2 (priority 2019, dated 2025).
Where two headings read alike, the source gives them in different places.

How the values were obtained:
[1] = system: HIV-1 (IIIB); test: Antiviral assay in MT-4 cells (HIV MT-4 antiviral assay); assay type: cell-based; details: Human immunodeficiency virus 1, IIIB, MT4, 120 h, HIV-1 (IIIB) in MT-4 cells, 5 days incubation; read-out: EC50
Procedure, shortened: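 MT-4 cells infected with HIV-1 IIIB (1:250 diluted stock) and exposed to 1:3 serially diluted compound in RPMI with 10% FBS. Viability read by CellTiter-Glo luminescence after 5 days at 37° C; mock-infected cells and 5 μM AZT as controls.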

[2] = Cytotoxicity assay in MT-4 cells; assay type: cell-based, human; details: human, uninfected MT-4 cells, 5 days incubation; read-out: CC50
Procedure, shortened: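 Infected MT-4 cells (HIV-1 IIIB, fresh 1:250 dilution of concentrated stock) or mock-infected cells exposed to compounds for 5 days at 37 °C. Viability by CellTiter-Glo luminescence; 5 μM AZT positive control, no-drug negative control. Uninfected cells used for cytotoxicity, with 10 μM puromycin as base-level cytotoxicity control.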

[3] = system: pLai RLuc reporter virus; test: microbe, parasite or virus in culture; assay type: cell-based, HIV; details: Human immunodeficiency virus 1, 72 h
Procedure, shortened: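 MT-4 cells pre-infected 2 h at 37 °C with pLai RLuc virus, then exposed to 1:3 serial dilutions of compound in RPMI/10% FBS with or without 50% human serum for 72 h at 37 °C. Renilla luminescence read-out; serum shift = EC50(HS/CCM)/EC50(CCM).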

[4] = read-out: Antiviral Serum Shift RLuc 50% HS, HS/CCM (RPMI media, 10% FBS, 50% HS, 1% P/S), 72-h incubation
[5] = read-out: Antiviral Serum Shift RLuc CCM, CCM (RPMI media, 10% FBS, 1% P/S), 72-h incubation

Structure (SMILES)	EC50 [1] [nM]	CC50 at 5 days [2] [nM]	EC50 [3, 4] [nM]	EC50 [3, 5] [nM]
C[C@H]1C[C@H]2CN(C(=O)c3c(O)c(=O)c(C(=O)NCc4c(F)cc(F)cc4F)cn32)[C@@H](C)C1 [Example 142-2, (3S,5R,7S)-12-hydroxy-3,5-dimethyl-1,11-dioxo-N-(2,4,6-trifluorobenzyl)-1,4,5,6,7,11-hexahydro-3H-2,7-methanopyrido[1,2-a][1,4]diazonine-10-carboxamide]	1.87	13600	2.81	0.363
C[C@]12CCCCN(C1)C(=O)c1c(O)c(=O)c(C(=O)NCc3ccc(F)cc3F)cn12 [Example 173, (7S)—N-(2,4-difluorobenzyl)-12-hydroxy-7-methyl-1,11-dioxo-1,4,5,6,7,11-hexahydro-3H-2,7-methanopyrido[1,2-a][1,4]diazonine-10-carboxamide]	1.24	12500	13.9	0.363
O=C(NCc1ccc(F)cc1F)c1cn2c(c(O)c1=O)C(=O)N1CCCC(F)(F)[C@H]2C1 [Example 16-2, (7R)—N-(2,4-difluorobenzyl)-6,6-difluoro-12-hydroxy-1,11-dioxo-1,4,5,6,7,11-hexahydro-3H-2,7-methanopyrido[1,2-a][1,4]diazonine-10-carboxamide]	5.3	36200	82.5	0.85
C[C@H]1CC(F)C[C@H]2CN1C(=O)c1c(O)c(=O)c(C(=O)NCc3c(F)cc(F)cc3F)cn12 (stereo partly drawn) [Example 84, (3S,7S)-5-fluoro-12-hydroxy-3-methyl-1,11-dioxo-N-(2,4,6-trifluorobenzyl)-1,4,5,6,7,11-hexahydro-3H-2,7-methanopyrido[1,2-a][1,4]diazonine-10-carboxamide]	2.01	37200	1.36	0.427
O=C(NCc1ccc(F)cc1F)c1cn2c(c(O)c1=O)C(=O)N1CCCC(F)(F)[C@@H]2C1 [Example 16-1, (7S)-N-(2,4-difluorobenzyl)-6,6-difluoro-12-hydroxy-1,11-dioxo-1,4,5,6,7,11-hexahydro-3H-2,7-methanopyrido[1,2-a][1,4]diazonine-10-carboxamide]	2.1	14400	3.22	0.25
C[C@@H]1CO[C@H](C)[C@H]2CN1C(=O)c1c(O)c(=O)c(C(=O)NCc3c(F)cc(F)cc3F)cn12 [Example 196, (3R,6R,7R)-12-hydroxy-3,6-dimethyl-1,11-dioxo-N-(2,4,6-trifluorobenzyl)-1,3,4,6,7,11-hexahydro-2,7-methanopyrido[1,2-d][1,4,7]oxadiazonine-10-carboxamide]	2.08	25900	14.3	0.469
O=C(NCc1c(F)cc(F)c(F)c1F)c1cn2c(c(O)c1=O)C(=O)N1CCCC[C@H]2C1 [Example 125, (7S)-12-hydroxy-1,11-dioxo-N-(2,3,4,6-tetrafluorobenzyl)-1,4,5,6,7,11-hexahydro-3H-2,7-methanopyrido[1,2-a][1,4]diazonine-10-carboxamide]	2.95	10200	1.97	0.328
O=C(NCc1c(F)cc(F)cc1F)c1cn2c(c(O)c1=O)C(=O)N1C[C@H]2CCc2cc(Cl)ccc21 [Example 48-2, (12R)-2-chloro-7-hydroxy-6,8-dioxo-N-(2,4,6-trifluorobenzyl)-6,8,13,14-tetrahydro-12H-5,12-methanobenzo[e]pyrido[1,2-a][1,4]diazonine-9-carboxamide]	2.38	17600	1.52	0.358
C[C@H]1C=CC[C@H]2CN1C(=O)c1c(O)c(=O)c(C(=O)NCc3c(F)cc(F)cc3F)cn12 [Example 148, (3S,7S)-12-hydroxy-3-methyl-1,11-dioxo-N-(2,4,6-trifluorobenzyl)-1,6,7,11-tetrahydro-3H-2,7-methanopyrido[1,2-a][1,4]diazonine-10-carboxamide]	1.67	13800	6.34	0.182
